# Read-outs that look alike come from different tables or passages of the source.
# Key:
# brain p-synuclein = experiment: synuclein phosphorylation in brains of FVB mice treated with kainic acid (immunohistochemistry, ELISA); type: in vivo, mouse; details: immunohistochemistry and ELISA
# Excerpt: This example describes up regulation of phosphorylated α-synuclein (p-synuclein) in wildtype mice after kainic acid administration. Several articles have reported that excitotoxicity can result in an upregulation of polo-like kinases. […] Thus the kainic acid model provides better understanding the involvement of the PLK2 p-synuclein pathway in neurodegeneration and may be used in screening assays of the invention.
# [1] = tested on: synuclein phosphorylation by endogenous kinase; experiment: kinase inhibitor treatment of mouse cortical cultures (MCC), total and phospho-synuclein ELISA; type: cell-based
# Method: Mouse cortical cultures from fetal (i) Swiss-Webster, (ii) C56BL/6 WT and (iii) C56BL/6 E46K-Synuclein Trangenic mice were prepared and maintained in B27/DMEM/1% Penicillin-Streptomycin at 37° C./10% CO2 for three to fourteen days and then treated with kinase inhibitors.
# Cultures were exposed to inhibitors for two hours in B27/DMEM/1% Penicillin-Streptomycin. Cells were immediately washed in 100 μL of PBS plus Mg^2+ and Ca^2+, and harvested in ice-cold CEB minus EGTA plus protease inhibitors, frozen on dry ice and stored at −80° C. until processed. A Micro BCA (Pierce) total protein assay, and total synuclein and phospho-synuclein ELISAs were performed on each plate of treated cells using standard methods.
# [2] = tested on: synuclein phosphorylation (serine-129); experiment: inhibition of synuclein phosphorylation across the cellular paradigms (primary neuronal cultures and 293 cells); type: cell-based, mouse, rat and human; details: Homo sapiens, HEK293; most EC50 values, all cellular paradigms; read-out: EC50 inhibition of synuclein phosphorylation, cellular paradigms
# panel of 260 kinases = experiment: screen against a panel of 260 kinases at 10 uM; type: biochemical
# [3] = tested on: endogenous kinase (synuclein phosphorylation); experiment: HEK-293 cells overexpressing synuclein with empty vector, inhibition of synuclein phosphorylation; type: cell-based, human; details: Homo sapiens
# Method: All vectors had the sequence coding for the protein of interest. Transfection was accomplished using Lipofectamine 2000 (Invitrogen, Carlsbad, Calif.) with 0.08 μg vector. Cells were washed and harvested 48 hours post-transfection. A Micro BCA (Pierce) total protein assay and total synuclein and phospho-synuclein ELISAs were performed on each plate of treated cells.
Compound,p-synuclein levels in brain (brain p-synuclein),"EC50 ([1]; Mus musculus, read-out: EC50, E46K-Syn TG MCC)","EC50 ([1]; Swiss-Webster mouse cortical cultures, read-out: EC50, Swiss-Webster MCC)","EC50 ([1]; WT mouse cortical cultures, read-out: EC50, WT-MCC)",EC50 [2],inhibition in panel of 260 kinases (panel of 260 kinases),"EC50 ([3]; HEK293, read-out: EC50, Endogenous Kinase (293))","EC50 ([3]; HEK293, read-out: EC50 Based on the Percent Inhibition of Synuclein Phosphorylation, Synuclein + Vector)","EC50 ([3]; HEK293, read-out: EC50 synuclein phosphorylation, endogenous kinase)"
C=C(C)[C@H]1CN[C@H](C(=O)O)[C@H]1CC(=O)O [kainic acid],Increased levels,–,–,–,–,–,–,–,–
"CC[C@@H]1C(=O)N(C)c2cnc(Nc3ccc(C(=O)NC4CCN(C)CC4)cc3OC)nc2N1C1CCCC1 [BI 2536, 4-[[(7r)-8-cyclopentyl-7-ethyl-5,6,7,8-tetrahydro-5-methyl-6-oxo-2-pteridinyl]amino]-3-methoxy-n-(1-methyl-4-piperidinyl)-benzamide]",–,< 0.1 µM,0.092 µM,< 0.1 µM,≤ 0.1 µM,very potent in inhibiting PLK2 and PLK3,0.054 µM,0.099 µM,0.099 µM
